Key:
Assay in all cases: Root organogenesis response to transient auxin treatment (pseudonodule count)
Type in all cases: in vivo
[1] = test system: Hordeum vulgare cultivar Golden Promise; conditions: Hordeum vulgare (barley) roots, 50 μM for 1 hour, counted 7 days after treatment
Experimental: (§1) In order to investigate the potential impact of auxin and cytokinin treatment on root organogenesis, seeds of the Medicago truncatula cultivar Jester, the Lotus japonicus ecotype Gifu, and the Hordeum vulgare cultivar Golden Promise were sterilized, and then seedlings were grown on FP media (without Nitrogen and Phosphorus) for 3, 7, and 2 days, respectively. Grown plants were transformed to FP media with either control treatment, 50 μM of 2,4-Dichlorophenoxyacetic acid (synthetic auxin), 100 nM of 6-Benzylaminopurine (synthetic cytokinin) or both of the hormones for 1 hour before moving to FP media. FIG. 1A-1C show the number of pseudonodules/Arrested Lateral roots (ALR) counted 7 days after control treatment, treatment with 2,4-Dichlorophenoxyacetic acid (2,4-D), 6-Benzylaminopurine (BAP), or both.

[2] = test system: Lotus japonicus ecotype Gifu; conditions: 50 μM for 1 hour, counted 7 days after treatment
Experimental: as §1

[3] = test system: Medicago truncatula cultivar Jester; conditions: 50 μM for 1 hour, counted 7 days after treatment
Experimental: as §1

O=C(O)COc1ccc(Cl)cc1Cl [2,4-Dichlorophenoxyacetic acid]
pseudonodule formation compared with control plants [1]: increased pseudonodule formation | pseudonodule formation compared with control plants ([1]; listed as auxin): formation of pseudonodules | pseudonodule formation compared with control plants [2]: increased pseudonodule formation | pseudonodule formation compared with control plants [3]: increased pseudonodule formation
